Values quoted from earlier work as cited in patent US20050208134A1, “Biocompatible polymeric beads and use thereof” (priority 2004, published 2005).

Details: humans, administered orally

SMILES: O=C(CC1NCCCC1O)Cn1cnc2cc(Br)c(Cl)cc2c1=O (stereo not shown) [halofuginone]
- maximum tolerated dose with no adverse effects observed: 1 mg/day
